Measurements as given in ChEMBL document CHEMBL2331555 (ACS Med Chem Lett, 2013).
≈ marks a conversion by molar mass, not a printed value.

Experiments:
[1] = physchem
[2] = in vitro; settings: dog, MDCK
[3] = in vivo; settings: rat, po
[4] = in vivo; settings: rat

| solubility kinetic [1] | Papp [2] | bioavailability [3] | Vd [4] | Structure (SMILES) |
| --- | --- | --- | --- | --- |
| 2 µM (≈ 0.901 µg/mL) | 0.305 ×10⁻⁶ cm/s |  |  | COc1ccc(-c2ccc3ncc4c(c3n2)n(-c2ccc(C(C)(C)C#N)cc2)c(=O)n4C)cn1 |
| 117 µM (≈ 52.6 µg/mL) | 14.3 ×10⁻⁶ cm/s |  |  | COc1ccc(-c2ccc3ncc4c(c3n2)n([C@H]2CC[C@H](OCCO)CC2)c(=O)n4C)cn1 |
| 22.2 µM (≈ 9 µg/mL) | 14.3 ×10⁻⁶ cm/s |  |  | COc1ccc(-c2ccc3ncc4c(c3n2)n([C@H]2CC[C@H](O)CC2)c(=O)n4C)cn1 |
|  | 6.65 ×10⁻⁶ cm/s | 76% | 4.46 L/kg | COc1ccc(-c2ccc3ncc4c(c3n2)n(C2CCN(C)CC2)c(=O)n4C)cn1 |
| 22 µM (≈ 9.51 µg/mL) | 16.3 ×10⁻⁶ cm/s |  |  | COc1ccc(-c2ccc3ncc4c(c3n2)n(C2CCN(C(C)=O)CC2)c(=O)n4C)cn1 |
| 455 µM (≈ 190 µg/mL) | 19.5 ×10⁻⁶ cm/s |  |  | CC(=O)N1CCC(n2c(=O)n(C)c3cnc4ccc(-c5ccc(C)nc5)nc4c32)CC1 |
|  | 18.2 ×10⁻⁶ cm/s |  |  | Cc1ccc(-c2ccc3ncc4c(c3n2)n(C2CCN(C(=O)CO)CC2)c(=O)n4C)cn1 |
|  | 21.9 ×10⁻⁶ cm/s |  |  | Cc1ccc(-c2ccc3ncc4c(c3n2)n(C2CCN(C(=O)C(C)(C)O)CC2)c(=O)n4C)cn1 |
|  | 20.2 ×10⁻⁶ cm/s |  |  | COCC(=O)N1CCC(n2c(=O)n(C)c3cnc4ccc(-c5ccc(C)nc5)nc4c32)CC1 |
| 55.5 µM (≈ 24.5 µg/mL) | 8.56 ×10⁻⁶ cm/s |  |  | CC(=O)N1CCC(n2c(=O)n(C)c3cnc4ccc(-c5cccc6[nH]ncc56)nc4c32)CC1 |
|  | 3.97 ×10⁻⁶ cm/s |  |  | CC(=O)N1CCC(n2c(=O)n(C)c3cnc4ccc(-c5cnc6[nH]ncc6c5)nc4c32)CC1 |
| 444 µM (≈ 209 µg/mL) | 4.6 ×10⁻⁶ cm/s |  |  | C[C@H](O)C(=O)N1CCC(n2c(=O)n(C)c3cnc4ccc(-c5cccc6[nH]ncc56)nc4c32)CC1 |
